Measured values taken from patent US20220211038A1, “COMPOSITION AND METHOD FOR PROTECTING PLANT AGAINST DISEASE AND PEST” (SUMITOMO CHEMICAL COMPANY, LIMITED, priority 2019, published 2022).

Columns and labels:
[1] = tested on: powdery mildew (Sphaerotheca fuliginea); assay: Cucumber powdery mildew control, spray on plantlets (Test Example 2); format: in vivo; settings: 10 days
Text: Fluopyram and fluxapyroxad were respectively mixed with surfactant and crushed in a grinding equipment to obtain a crushed composition. The crushed composition was then mixed with tap water so as to have the compound at the concentration described in Table 2 to obtain spray liquid. The spray liquid was sprayed onto cucumber (Cultivar: Hanjiro Fushinari) plantlet at run-off water volume. Plantlets were then air dried before artificially inoculated by putting the test plantlets in the same room where cucumber with powdery mildew (Sphaerotheca fuliginea) symptoms were grown. The plantlet were grown in the room for 10 days and the degree of disease severity on leaves was measured (hereinafter referred to as “treated group”).
The same operation was carried out […] (hereinafter referred to as “untreated group”).
The controlling value was calculated from each of the obtained degree of disease severity on leaves of the treated group and the untreated group respectively by the following “Equation 2”.
Controlling value (%)=100×(X−Y)/X Equation 2
X: Degree of disease severity on leaves in the untreated group
Y: Degree of disease severity on leaves in the treated group

[2] = tested on: Septoria leaf blotch (Mycosphaerella graminicola); assay: Growth inhibition of Septoria leaf blotch in YBG medium, microtiter plate, absorbance at 600 nm (Test Example 1); format: cell-based; settings: 18° C., four days
Experimental: Fluopyram and fluxapyroxad were respectively dissolved in dimethyl sulfoxide, and agent solutions were prepared so that the concentration of each compound was 100 times the concentration described in Table 1. The agent solution was dispensed into each well of a microtiter plate (96 wells) in 1 μl portion, and then 99 μL of YBG medium to which conidia of Septoria leaf blotch (Mycosphaerella graminicola) was inoculated in advance (which was prepared by dissolving 10 g of yeast extract, 10 g of Bacto Peptone, and 20 mL of glycerol into 1 L of water, followed by sterilizing the medium) was dispensed into each of the well to which the agent solution was dispensed. The plate was cultivated at 18° C. for four days, thereby allowing Septoria leaf blotch to undergo proliferation, and the absorbance at 600 nm of a sample in each well of the microtiter plate was then measured to examine a degree of growth of Septoria leaf blotch (hereinafter referred to as “treated group”). Whereas, Septoria leaf blotch was grown similarly to the case of the treated group using dimethyl sulfoxide instead of the agent solution, and the degree of growth was measured (hereinafter referred to as “untreated group”). The efficacy was calculated from each of the obtained degree of growth of the treated group and the untreated group respectively by the following “Equation 1”.
Efficacy (%)=100×(X−Y)/X Equation 1
X: Degree of growth of fungus in the untreated group
Y: Degree of growth of fungus in the treated group

| SMILES | Controlling value (%) ([1]; Fluopyram 0.4 mg/L alone) | Controlling value (%) ([1]; Fluopyram 4.0 mg/L alone) | Efficacy (%) ([2]; Fluopyram 0.1 ppm alone) | Efficacy (%) ([2]; Fluopyram 1.75 ppm alone) | Controlling value (%) ([1]; Fluxapyroxad 0.4 mg/L alone) | Controlling value (%) ([1]; Fluxapyroxad 2.0 mg/L alone) | Efficacy (%) ([2]; Fluxapyroxad 0.18 ppm alone) | Efficacy (%) ([2]; Fluxapyroxad 0.5 ppm alone) |
| --- | --- | --- | --- | --- | --- | --- | --- | --- |
| O=C(NCCc1ncc(C(F)(F)F)cc1Cl)c1ccccc1C(F)(F)F [Fluopyram] | 32% | 50% | 24% | 60% |  |  |  |  |
| Cn1cc(C(=O)Nc2ccccc2-c2cc(F)c(F)c(F)c2)c(C(F)F)n1 [Fluxapyroxad] |  |  |  |  | 16% | 34% | 71% | 82% |
